Tests used:
[1] = biological target: Lysine-specific histone demethylase 1A (Homo sapiens, UniProt O60341); assay: LSD1 in vitro activity assay
[2] = biological target: T1, Amine oxidase [flavin-containing] A (Homo sapiens, UniProt P21397); assay: MAOA and MAOB In Vitro Activity Assay
T1 sequence (P21397 whole entry): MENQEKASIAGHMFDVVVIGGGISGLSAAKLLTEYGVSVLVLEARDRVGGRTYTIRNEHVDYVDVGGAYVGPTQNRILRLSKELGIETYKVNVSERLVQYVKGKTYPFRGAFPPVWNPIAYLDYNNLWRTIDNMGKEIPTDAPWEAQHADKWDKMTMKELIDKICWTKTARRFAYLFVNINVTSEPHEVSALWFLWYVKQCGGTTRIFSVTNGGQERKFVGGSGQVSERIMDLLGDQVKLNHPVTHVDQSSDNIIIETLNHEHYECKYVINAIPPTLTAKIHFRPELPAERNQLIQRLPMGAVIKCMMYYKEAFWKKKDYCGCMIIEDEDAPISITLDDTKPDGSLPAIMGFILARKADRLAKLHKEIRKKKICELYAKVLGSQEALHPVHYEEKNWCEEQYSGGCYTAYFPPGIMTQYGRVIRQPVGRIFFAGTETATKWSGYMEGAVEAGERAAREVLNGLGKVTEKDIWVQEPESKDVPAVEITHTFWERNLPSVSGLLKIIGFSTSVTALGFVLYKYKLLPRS

[3] = biological target: T2, Amine oxidase [flavin-containing] B (Homo sapiens, UniProt P27338); assay: MAOA and MAOB In Vitro Activity Assay
T2 sequence (P27338 whole entry): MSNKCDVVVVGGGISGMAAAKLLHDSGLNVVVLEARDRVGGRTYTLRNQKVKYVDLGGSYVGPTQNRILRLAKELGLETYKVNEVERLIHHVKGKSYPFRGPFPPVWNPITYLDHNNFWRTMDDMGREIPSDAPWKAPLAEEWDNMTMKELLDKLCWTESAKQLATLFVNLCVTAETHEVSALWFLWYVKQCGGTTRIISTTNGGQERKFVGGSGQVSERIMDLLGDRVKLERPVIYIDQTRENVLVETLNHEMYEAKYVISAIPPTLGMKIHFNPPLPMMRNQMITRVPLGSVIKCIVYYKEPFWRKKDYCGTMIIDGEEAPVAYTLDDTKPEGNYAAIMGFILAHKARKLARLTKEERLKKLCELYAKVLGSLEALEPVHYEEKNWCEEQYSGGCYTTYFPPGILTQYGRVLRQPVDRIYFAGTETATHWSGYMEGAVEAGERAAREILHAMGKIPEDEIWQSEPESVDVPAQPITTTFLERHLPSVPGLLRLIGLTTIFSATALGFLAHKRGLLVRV

O=S(=O)(c1ccccc1)N1CCc2cc(C3CC3NCc3c[nH]c4ccccc34)ccc21 (trans isomer) [US11873292, Compound A8]
IC50 [1]: 0.0851 µM
IC50 [2]: 81.7 µM
IC50 [3]: > 100 µM

Source: BindingDB's records for patent US11873292 (Shanghai Institute of Materia Medica, 2024)
